Data on 6 compounds can be found in patent US20230131899A1, “INHIBITORS OF MICROBIALLY INDUCED AMYLOID” (Axial Therapeutics, Inc., priority 2020, published 2023).

Structures are written as SMILES. Read-outs that look alike come from different tables or passages of the source. Some results are limits rather than exact numbers.

For one assay, the target named is T1, human α-synuclein (Homo sapiens, UniProt P37840).
T1 construct: the full-length gene for untagged human α-synuclein was inserted; made in house; host or cells: E. coli BL21(DE3), plasmid derived from pT7 or pET11a
The assay is described as follows: Cell-free Thioflavin T assay of α-synuclein aggregation (αSyn ThT Assay). The following applies: αSyn 50 μM. It counts as biochemical. The method, then:
To assess the effects of compounds on aggregation of α-synuclein, a cell-free assay was performed using purified α-synuclein and Thioflavin T. In the assay, human α-synuclein was expressed in E. coli BL21(DE3) from a plasmid derived from pT7 or pET11a into which the full-length gene for untagged human α-synuclein was inserted. Cells were induced at OD600 0.6 with 0.8 mM IPTG for 4 hours, harvested by centrifugation and suspended in a volume of lysis buffer (10 mM Tris, pH 8.0, 1 mM EDTA, and 1 mM PMSF) equivalent to one-tenth the volume of culture and lysed by boiling for 20 minutes. Cell debris was pelleted by centrifugation, clarified lysate was treated with 10% streptomycin sulfate at 136 μL/mL followed by glacial acetic acid at 228 μL/mL, lysate was centrifuged, supernatant was transferred to a fresh tube and protein was precipitated via addition of an equal volume of saturated (100%) ammonium sulfate and incubated at 4° C. on a rocking shaker for 1 hour. The protein was pelleted via centrifugation and washed with an equal volume of 100 mM ammonium acetate in chilled ethanol, pelleted via centrifugation, washed twice with chilled ethanol, dried overnight, resuspended in 50 mM potassium phosphate buffer pH 7.3 or 10 mM Tris pH 7.4, and passed through a 50 kDa cut-off column. Immediately prior to use, the purified α-synuclein was filtered with a 0.2 μm nylon filter. The assay was conducted in 96-well black microplates with a single 1-2 mm glass bead in each well, 20-40 μM ThioflavinT, 1% DMSO, α-synuclein at 50 μM and compounds at 20-100 μM. Plates were sealed with sealing tape (ThermoFisher 232701), incubated at 37° C. in a Tecan Nano F200 plate reader with excitation at 438 nm using a 439 nm filter with a bandwidth of 8 nm, and emission at 495 nm with a 490 nm filter with a bandwidth of 10 nm. During the assay, plates were shaken continuously or were shaken for 999 seconds every 18 minutes. Readings were performed hourly for up to 73 hours. The effect of compounds on α-synuclein aggregation in the assay was determined with data at 36, 47, 48 or 72 hours or from the final timepoint of the assay, prior to or roughly near the time when ThT fluorescence plateaued in the vehicle control wells. The vehicle controls contained all components of the assay except compounds and represented the level of α-synuclein aggregation in the absence of an inhibitor or accelerator. Fluorescence values for each compound with α-synuclein were first adjusted by subtracting the average fluorescence of the compound in the absence of α-synuclein. These adjusted values were normalized by dividing them by the average fluorescence at the same timepoint in the vehicle control wells, and the average normalized fluorescence with the compound was expressed as a percentage of the average fluorescence observed in untreated controls. Percent inhibition of α-synuclein aggregation by a compound was determined by subtracting the percent average fluorescence with the compound relative to the average vehicle control from 100%. A higher positive percent inhibition reflects greater inhibition of α-synuclein aggregation, while a negative percent inhibition reflects potentiation of α-synuclein aggregation.
Alternate concentrations of Thioflavin T may be used in the assay and may affect the fluorescent signal and sensitivity of the assay. Alternate concentrations of α-synuclein may be used and such alterations may affect aggregation kinetics of α-synuclein in the assay. Alternate concentrations of compounds may be tested in the assay, and dose-responses may be evaluated. Additional reagents may be added to the assay which may affect aggregation kinetics of α-synuclein depending on their concentration, including detergents such as sodium dodecyl sulfate, sodium chloride, dithiotreitol, or bovine serum albumin. Shaking may be included at alternate intervals in the assay and may affect α-synuclein aggregation kinetics. […]

A further assay addresses T2, E. coli CsgA (Escherichia coli, UniProt P28307).
T2 construct: made in house; host or cells: E. coli NEB 3016 slyD::kan, pET11d
The assay is described as follows: In vitro ThioflavinT assay of CsgA aggregation (CsgA ThT Assay). It counts as biochemical. The settings on record: for remaining activity at 100 µM: compound 100 μM. In a few lines:
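Purified C-terminal His-tagged CsgA, monomerised by desalting and 30-kDa filtration, at 2-20 μM with 20-40 μM ThT in 50 mM potassium phosphate pH 7.3, 1% DMSO, compounds 3.125-200 uM; room temperature, fluorescence (ex 438/em 495 nm) read every 15 min. Background-subtracted signal expressed as percent inhibition versus vehicle at 6-6.5 or 8-9 h, or as percent control AUC.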

Where [1] appears, read: mean % inhibition of αSyn aggregation relative to DMSO control, compounds at 100 μM, read-out: αSyn ThT Assay % Inhibition.
The mark [2] stands for this setting: compounds at 100 μM, class symbol, read-out: αSyn ThT Assay % Inhibition (activity range).
[3] abbreviates: read-out: CsgA ThT Assay (10 μM CsgA) % Control AUC at 1005 minutes, 100 μM (activity range), CsgA 10 μM, black plates, 1005 minutes, class symbol.
The mark [4] stands for this setting: read-out: CsgA ThT Assay (10 μM CsgA) % Control AUC at 1005 minutes, 100 μM, mean AUC as % of DMSO control, CsgA 10 μM, black plates, 1005 minutes.
The mark [5] stands for this setting: class symbol, compounds 100 μM, read-out: αSyn ThT Assay % inhibition, activity range.
Where [6] appears, read: mean percent inhibition relative to DMSO control, compounds 100 μM, read-out: αSyn ThT Assay % inhibition.
Where [7] appears, read: read-out: CsgA ThT Assay (2 μM CsgA) % Control Bmax 25 μM, activity range, class symbol, CsgA 2 μM, white plates, compound 25 μM.
Setting [8] is: read-out: CsgA ThT Assay (2 μM CsgA) % Control Bmax 25 μM, mean Bmax as percentage of DMSO control, CsgA 2 μM, white plates, compound 25 μM.
Where [9] appears, read: read-out: CsgA ThT Assay (2 μM CsgA) % Control Bmax 100 μM, activity range, class symbol, CsgA 2 μM, white plates.
Where [10] appears, read: read-out: CsgA ThT Assay (2 μM CsgA) % Control Bmax 100 μM, mean Bmax as percentage of DMSO control, CsgA 2 μM, white plates.
Where [11] appears, read: read-out: CsgA ThT Assay (10 μM CsgA) % Control AUC at 1005 minutes, 25 μM (activity range), CsgA 10 μM, black plates, compound 25 μM, 1005 minutes, class symbol.
Setting [12] is: read-out: CsgA ThT Assay (10 μM CsgA) % Control AUC at 1005 minutes, 25 μM, mean AUC as % of DMSO control, CsgA 10 μM, black plates, compound 25 μM, 1005 minutes.

T2 sequence (P28307 23-151): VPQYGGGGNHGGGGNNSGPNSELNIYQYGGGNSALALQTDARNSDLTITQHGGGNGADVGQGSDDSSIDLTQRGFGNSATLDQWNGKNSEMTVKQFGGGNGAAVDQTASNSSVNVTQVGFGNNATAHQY

As to `O=C(O)C1CS(=O)(=O)c2c(-c3cccc(C(F)(F)F)c3)c(Cc3cccc4ccccc34)cc(=S)n21` (single isomer, unassigned) [Compound 014a, 7-(naphthalen-1-ylmethyl)-5-thioxo-8-(3-(trifluoromethyl)phenyl)-2,3-dihydro-5H-thiazolo[3,2-a]pyridine-3-carboxylic acid 1,1-dioxide], the results for the inhibition at 100 µM on human α-synuclein (setting [1]) and on human α-synuclein (setting [2]) were 68% and above 60%, respectively. For the same compound, on E. coli CsgA (CsgA 10 μM, black plates, compound 25 μM, 1005 minutes, class symbol), the “CsgA ThT Assay (10 μM CsgA) % Control AUC at 1005 minutes, 25 μM (activity range)” value is on record as “(++) (% control AUC of 31 to 60%)”. Further, on E. coli CsgA (mean AUC as % of DMSO control, CsgA 10 μM, black plates, compound 25 μM, 1005 minutes), the “CsgA ThT Assay (10 μM CsgA) % Control AUC at 1005 minutes, 25 μM” value was found to be 37%. Besides, the remaining activity at 100 µM is 11 to 31% on E. coli CsgA (setting [3]) and 29% on E. coli CsgA (setting [4]).

`COc1cccc(CN2CC(C(=O)O)n3c2c(-c2cccc(C(F)(F)F)c2)c(Cc2cccc4ccccc24)c(Cl)c3=O)c1` (stereo not shown) [Compound 191, 6-chloro-1-(3-methoxybenzyl)-7-(naphthalen-1-ylmethyl)-5-oxo-8-(3-(trifluoromethyl)phenyl)-1,2,3,5-tetrahydroimidazo[1,2-a]pyridine-3-carboxylic acid]: the inhibition at 100 µM was 31 to 60% on human α-synuclein (setting [5]) and 55% at human α-synuclein (setting [6]). In addition, the values for the remaining activity at 25 µM at E. coli CsgA (setting [7]) and on E. coli CsgA (setting [8]) were 31 to 60% and 58%, respectively. In addition, the results for the remaining activity at 100 µM at E. coli CsgA (setting [9]) and on E. coli CsgA (setting [10]) were 31 to 60% and 43%, respectively.

Take `CC(=O)Nc1ccc(Cc2cc(=O)n3c(c2-c2cccc(C(F)(F)F)c2)S(=O)(=O)N(C)CC3C(=O)O)c2ccccc12` (stereo not shown) [Compound 048]: the inhibition at 100 µM was 18% on human α-synuclein (setting [1]) and 11 to 30% on human α-synuclein (setting [2]). Further, the remaining activity at 25 µM at E. coli CsgA (setting [11]) is above 60%; on E. coli CsgA (setting [12]), 90%. Besides, the figures for the remaining activity at 100 µM on E. coli CsgA (setting [3]) and at E. coli CsgA (setting [4]) were above 60% and 61%, respectively.

With `CC(C)CNC(=O)c1c(Cc2cccc3ccccc23)c(-c2cccc(C(F)(F)F)c2)c2n(c1=O)C(C(=O)O)CN(C)S2(=O)=O` (stereo not shown) [Compound 159, 7-(isobutylcarbamoyl)-2-methyl-8-(naphthalen-1-ylmethyl)-6-oxo-9-(3-(trifluoromethyl)phenyl)-3,4-dihydro-2H,6H-pyrido[1,2-e][1,2,5]thiadiazine-4-carboxylic acid 1,1-dioxide], the inhibition at 100 µM at human α-synuclein (setting [5]) is above 60%; at human α-synuclein (setting [6]), 83%. The remaining activity at 25 µM at E. coli CsgA (setting [7]) is above 60%; at E. coli CsgA (setting [8]), 64%. Further, the remaining activity at 100 µM is above 60% on E. coli CsgA (setting [9]) and 76% on E. coli CsgA (setting [10]).

`CCCN1CC(C(=O)O)n2c(c(-c3cccc(C(F)(F)F)c3)c(Cc3cccc4ccccc34)c(OC3CCCC3)c2=O)S1(=O)=O` (stereo not shown) [Compound 144, 7-(cyclopentyloxy)-8-(naphthalen-1-ylmethyl)-6-oxo-2-propyl-9-(3-(trifluoromethyl)phenyl)-3,4-dihydro-2H,6H-pyrido[1,2-e][1,2,5]thiadiazine-4-carboxylic acid 1,1-dioxide]: the inhibition at 100 µM at human α-synuclein (setting [5]) is 11 to 30%; on human α-synuclein (setting [6]) it was 29%. For the same compound, the remaining activity at 25 µM on E. coli CsgA (setting [7]) is above 60%; on E. coli CsgA (setting [8]), 77%.

For the compound `CN1CC(C(=O)O)n2c(c(-c3cccc(C(F)(F)F)c3)c(Cc3ccc(NS(C)(=O)=O)c4ccccc34)cc2=O)S1(=O)=O` (stereo not shown) [Compound 067], the results for the inhibition at 100 µM at human α-synuclein (setting [1]) and at human α-synuclein (setting [2]) were 35% and 31 to 60%, respectively. In addition, the remaining activity at 25 µM on E. coli CsgA (setting [11]) was above 60%; on E. coli CsgA (setting [12]) it was 67%. Also, the remaining activity at 100 µM on E. coli CsgA (setting [3]) is 11 to 31%; at E. coli CsgA (setting [4]), 16%.

As usually defined, the inhibition is the relative decrease from the control value, in per cent.
